Data: patent US9650375B2, “Indole derivatives useful as anti-diabetic agents” (Merck Sharp & Dohme Corp., priority 2013, dated 2017)

Columns and labels:
[1] = biological target: T1, recombinant human AMPK complex 1 (containing α1β1γ1) (Homo sapiens, UniProt Q13131+Q9Y478); experiment: In vitro AMPK activation assay (AMPKSAMSF), AMPK complex 1; assay type: biochemical; settings: for Emax: 10-point titration data expressed as % maximum AMP activation; for EC50: human AMPK complex 1, inflection point reflecting 50% of the maximum activation
T1 construct: made in house; host or cells: Spodoptera frugiperda Sf21 cells (baculovirus, triple infection)
T1 sequence (Q13131 whole entry): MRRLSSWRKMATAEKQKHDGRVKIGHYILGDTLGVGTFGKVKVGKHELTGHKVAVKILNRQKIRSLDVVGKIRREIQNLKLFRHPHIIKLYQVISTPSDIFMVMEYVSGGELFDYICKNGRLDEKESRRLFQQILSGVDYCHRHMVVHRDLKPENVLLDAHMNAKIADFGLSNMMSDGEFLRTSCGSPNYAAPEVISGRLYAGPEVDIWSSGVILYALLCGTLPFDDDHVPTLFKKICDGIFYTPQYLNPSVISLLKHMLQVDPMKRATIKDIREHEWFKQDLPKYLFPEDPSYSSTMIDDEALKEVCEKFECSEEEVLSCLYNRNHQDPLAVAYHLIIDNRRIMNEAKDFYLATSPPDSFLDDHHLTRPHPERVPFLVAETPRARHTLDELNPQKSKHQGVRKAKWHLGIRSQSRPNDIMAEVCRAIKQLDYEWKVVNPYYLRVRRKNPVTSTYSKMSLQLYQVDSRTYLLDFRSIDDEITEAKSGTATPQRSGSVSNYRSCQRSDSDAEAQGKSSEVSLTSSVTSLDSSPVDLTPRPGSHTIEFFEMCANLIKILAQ
T1 sequence (Q9Y478 whole entry): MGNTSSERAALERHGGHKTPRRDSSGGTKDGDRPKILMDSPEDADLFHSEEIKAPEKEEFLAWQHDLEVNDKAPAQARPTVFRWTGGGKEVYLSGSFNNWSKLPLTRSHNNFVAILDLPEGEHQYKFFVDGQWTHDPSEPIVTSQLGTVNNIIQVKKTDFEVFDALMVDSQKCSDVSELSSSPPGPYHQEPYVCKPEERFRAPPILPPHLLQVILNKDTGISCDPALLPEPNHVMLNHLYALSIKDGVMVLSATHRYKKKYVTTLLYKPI
T1 sequence (P54619 whole entry partner): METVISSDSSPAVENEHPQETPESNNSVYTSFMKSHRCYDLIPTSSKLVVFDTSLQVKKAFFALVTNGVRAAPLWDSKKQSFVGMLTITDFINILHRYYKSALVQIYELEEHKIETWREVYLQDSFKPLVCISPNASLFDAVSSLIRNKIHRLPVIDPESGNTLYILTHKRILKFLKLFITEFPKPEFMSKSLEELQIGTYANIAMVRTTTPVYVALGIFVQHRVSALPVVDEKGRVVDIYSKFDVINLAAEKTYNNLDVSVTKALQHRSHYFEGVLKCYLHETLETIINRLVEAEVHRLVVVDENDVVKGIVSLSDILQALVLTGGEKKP
Description: (§1) AMPKSAMSF (In Vitro AMPK Activation Assay)
(§2) The recombinant human AMPK complex 1 (containing α1β1γ1) and complex 7 (containing α2β1γ1) were obtained from baculovirus expression system. Recombinant viruses were generated by cotransfection of AMPK/pBacPak9 clones with Baculogold baculovirus DNA (Pharmingen) in spodoptera frugiperda 21 cells according to the manufacturer's instructions. Each round of virus amplification was performed for 5 days in Grace's medium containing 10% serum. Virus that had been subjected to three rounds of amplification was used for all protein production procedures. To express the AMPK complex, sf21 cells were adapted to serum free medium (SF900 II, Invitrogen) by sequential dilution from serum containing stocks into SF900II medium and maintained in shaker flasks at 90 rpm at 27° C. The recombinant AMPK enzyme complex was produced by triple infection, one recombinant virus for each of the subunits, in sf21 cells under serum free conditions. Cells were infected in log phase, 1×10^6 cells/ml, at a multiplicity of infection of ˜5. Cells were harvested by centrifugation at 10,000×g for 15 minutes after 72 hours of infection with viruses. The insect cell pellet from 2 liters of culture was resuspended in 50 ml lysis buffer (20 mM Tris-HCl, 50 mM NaCl, 50 mM NaF, 30 mM Na PPi, 0.25 M sucrose, 10 mM ZnCl2, 2 mM DTT, 0.4 mg/ml digitonin) and subjected to two cycles of freeze-thaw lysis in a dry-ice ethanol bath. Insoluble material was removed by centrifugation at 10,000×g and the supernatant was fractionated with use of polyethylene glycol (PEG). The protein fraction precipitating between 2.5 and 6% PEG was used for further purification using a Blue-Sepharose step (Zhou et al, J. Clin. Invest. 108, 1167-1174, 2001).
(§3) The in vitro AMPK activation assay is performed in a volume of 30 μl in a 384-well plate. Enzyme reactions were assembled in the microtiter plate by adding 15 μl of 2× enzyme in assay buffer (20 mM HEPES, pH 7.3, 5 mM MgCl2, 3 mM DTT, 0.01% Brij 35 and CamK Kinase, to activate AMPK) to wells which contained either DMSO or compound. The reaction was initiated with the addition of 15 μ12× substrate mixture containing 200 μM ATP, and 3.0 μM fluorescently labeled SAMS (5-FAM-HMRSAMSGLHLVKRR—COOH) in assay buffer. After 45-minute incubation at 25° C., the reaction was stopped by the addition of 70 μl stop buffer (100 mM HEPES, pH 7.3, 40 mM EDTA, 0.015% Brij 35). Phosphorylated 5-FAM SAMS product is assessed using a Caliper EZ Reader LabChip microfluidics reader. Product conversion is determined by calculating the peak heights of the substrate and product and reporting the product/(product+substrate) peak ratio. The 10-point titration data were expressed as % maximum AMP activation. The results were plotted using 4 parameter fit and the inflection point reflecting 50% of the maximum activation was reported as the EC50.
(§4) The compounds of present invention, including the compounds of Examples 1-142, were tested in the in vitro AMPK activation assay using recombinant human AMPK complex 1 (containing α1β1γ1) or AMPK complex 7 (containing α2β1γ1) and found to have increased activation of human AMPK complex 1 or complex 7 at concentrations of less than 50 μM.

[2] = biological target: T2, recombinant human AMPK complex 7 (containing α2β1γ1) (Homo sapiens, UniProt P54646+Q9Y478); experiment: In vitro AMPK activation assay (AMPKSAMSF), AMPK complex 7; assay type: biochemical; settings: for Emax: 10-point titration data expressed as % maximum AMP activation; for EC50: human AMPK complex 7, inflection point reflecting 50% of the maximum activation
T2 construct: made in house; host or cells: Spodoptera frugiperda Sf21 cells (baculovirus, triple infection)
T2 sequence (P54646 whole entry): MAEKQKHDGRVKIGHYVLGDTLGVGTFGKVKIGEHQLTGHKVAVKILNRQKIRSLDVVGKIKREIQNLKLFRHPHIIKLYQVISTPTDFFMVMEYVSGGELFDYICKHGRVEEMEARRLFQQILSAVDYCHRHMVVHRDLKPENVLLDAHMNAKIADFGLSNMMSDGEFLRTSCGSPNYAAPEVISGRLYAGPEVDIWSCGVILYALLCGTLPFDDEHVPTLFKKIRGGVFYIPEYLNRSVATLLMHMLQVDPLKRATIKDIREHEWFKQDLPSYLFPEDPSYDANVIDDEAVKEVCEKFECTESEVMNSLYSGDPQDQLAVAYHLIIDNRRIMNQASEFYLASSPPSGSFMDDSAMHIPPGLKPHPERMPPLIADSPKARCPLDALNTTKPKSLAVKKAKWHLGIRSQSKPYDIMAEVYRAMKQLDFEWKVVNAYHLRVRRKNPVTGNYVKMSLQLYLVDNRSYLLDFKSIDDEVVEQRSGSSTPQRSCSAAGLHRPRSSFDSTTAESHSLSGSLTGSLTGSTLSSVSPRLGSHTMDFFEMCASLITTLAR
T2 sequence (Q9Y478 whole entry): as the sequence (Q9Y478 whole entry) above
T2 sequence (P54619 whole entry partner): as the sequence (P54619 whole entry partner) above
Description: as §1, §2, §3, §4

ob/ob and db/db mice = settings: following 8 weeks of administration; cited from earlier work

| SMILES | Emax [1] | EC50 [1] | Emax [2] | EC50 [2] | blood glucose reduction (ob/ob and db/db mice) |
| --- | --- | --- | --- | --- | --- |
| Cc1ccc(Cc2cc3cc(-c4ccc(N5CCCC5)cc4)c(Cl)cc3[nH]2)cc1C(=O)O [Example 1, 5-((6-chloro-5-(4-(pyrrolidin-1-yl)phenyl)-1H-indol-2-yl)methyl)-2-methylbenzoic acid] | 581% | 37 nM | – | – | – |
| CS(=O)(=O)c1ccc(-c2ccc(-c3cc4cc(CCCC(=O)O)[nH]c4cc3Cl)cc2)cc1 [Example 15] | 370% | 24 nM | – | – | – |
| OC[C@H]1OC[C@@H](Oc2cc3nc(-c4ccc(C5(CO)CC5)cc4)c(Cl)cc3[nH]2)[C@@H]1O [Example 124] | – | – | 305% | 15 nM | – |
| Cc1ccc(Oc2cc3nc(-c4ccc(-c5ccccc5)cc4)c(F)cc3[nH]2)cc1C(=O)O [Example 82] | – | – | 239% | 6 nM | – |
| Cc1ccc(Oc2cc3nc(-c4ccc(C5(CO)CC5)cc4)c(Cl)cc3[nH]2)cc1P(=O)(O)O [Example 114, (5-((6-chloro-5-(4-(1-(hydroxymethyl)cyclopropyl)phenyl)-1H-pyrrolo[3,2-b]pyridin-2-yl)oxy)-2-methylphenyl)phosphonic acid] | – | – | 333% | < 3 nM | – |
| NC(=O)c1ncn([C@@H]2O[C@H](CO)[C@@H](O)[C@H]2O)c1N [AICAR] | – | – | – | – | 35% |
| O=S1(=O)CCN(c2ccc(-c3nc4cc(O[C@@H]5CO[C@H]6[C@@H]5OC[C@H]6O)[nH]c4cc3Cl)cc2)CC1 [Example 105] | – | – | 495% | 8 nM | – |
| Cc1c(O[C@@H]2CC[C@H]3[C@@H]2OC[C@H]3O)[nH]c2cc(Cl)c(-c3ccc(-c4ccccc4)cc3)nc12 [Example 138] | – | – | 486% | 56 nM | – |
| CS(=O)(=O)c1ccc(-c2ccc(-c3nc4cc(CCCCO)[nH]c4cc3Cl)cc2)cc1 [Example 21] | 590% | 2 nM | – | – | – |
| CS(=O)(=O)c1ccc(-c2ccc(-c3nc4cc(CCCCC(=O)O)[nH]c4cc3Cl)cc2)cc1 [Example 23] | 575% | 1 nM | – | – | – |
| O[C@@H]1CO[C@H]2[C@@H]1OC[C@H]2Oc1cc2nc(-c3ccc4c(c3)OCO4)c(Cl)cc2[nH]1 [Example 76] | – | – | 446% | < 3 nM | – |
| Cc1ccc(Cc2cc3nc(-c4ccc(C5(CO)CC5)cc4)c(Cl)cc3[nH]2)cc1C(=O)O [Example 18, 5-((6-chloro-5-(4-(1-(hydroxymethyl)cyclopropyl)phenyl)-1H-pyrrolo[3,2-b]pyridin-2-yl)methyl)-2-methylbenzoic acid] | 573% | 4 nM | – | – | – |
| OC[C@H]1OC[C@H](Oc2cc3nc(-c4ccc(-c5ccccc5)cc4)c(Cl)cc3[nH]2)C[C@@H]1O [Example 121, (2R,3S,5R)-5-((5-([1,1′-biphenyl]-4-yl)-6-chloro-1H-pyrrolo[3,2-b]pyridin-2-yl)oxy)-2-(hydroxymethyl)tetrahydro-2H-pyran-3-ol] | – | – | 213% | 71 nM | – |
| Oc1ccccc1-c1ccc(-c2nc3cc(O[C@@H]4CO[C@H]5[C@@H]4OC[C@H]5O)[nH]c3cc2Cl)cc1 [Example 107, (3R,3aR,6R,6aR)-6-((6-chloro-5-(2′-hydroxy-[1,1′-biphenyl]-4-yl)-1H-pyrrolo[3,2-b]pyridin-2-yl)oxy)hexahydrofuro[3,2-b]furan-3-ol] | – | – | 492% | < 1 nM | – |
| Cc1ccc(Oc2cc3nc(-c4ccc(-c5ccccc5)cc4)c(Cl)cc3[nH]2)cc1C(=O)O [Example 80] | – | – | 230% | < 3 nM | – |
| Cc1ccc(Cc2cc3cc(-c4ccc(-c5ccncc5)cc4)c(Cl)cc3[nH]2)cc1C(=O)O [Example 30, 5-{[6-chloro-5-(4-pyridin-4-ylphenyl)-1H-indol-2-yl]methyl}-2-methylbenzoic acid] | 583% | 15 nM | – | – | – |
| OC[C@H]1OC[C@H](Oc2cc3nc(-c4ccc(C5(CO)CC5)cc4)c(Cl)cc3[nH]2)C[C@@H]1O [Example 122] | – | – | 384% | 4 nM | – |
| O[C@@H]1CO[C@H]2[C@@H]1OC[C@H]2Oc1cc2nc(-c3ccc(-c4ccc(-n5cncn5)cc4)cc3)c(Cl)cc2[nH]1 [Example 110] | – | – | 412% | < 1 nM | – |
| CS(=O)(=O)c1ccc(-c2ccc(-c3nc4cc(C[C@H]5CC[C@H](CO)CC5)[nH]c4cc3Cl)cc2)cc1 [Example 24, ((trans)-4-((6-chloro-5-(4′-(methylsulfonyl)-[1,1′-biphenyl]-4-yl)-1H-pyrrolo[3,2-b]pyridin-2-yl)methyl)cyclohexyl)methanol] | 256% | 14 nM | – | – | – |
| CS(=O)(=O)c1ccc(-c2ccc(-c3nc4cc(CCCC(=O)O)[nH]c4cc3Cl)cc2)cc1 [Example 22] | 416% | 8 nM | – | – | – |
| OCC1(c2ccc(-c3nc4cc(O[C@@H]5CO[C@H]6[C@@H]5OC[C@H]6O)[nH]c4cc3F)cc2)CC1 [Example 72] | – | – | 530% | < 3 nM | – |
| Cc1ccc(Cc2cc3cc(-c4ccc(C5(CO)CC5)cc4)c(Cl)cc3[nH]2)cc1C(=O)O [Example 6, 5-((6-chloro-5-(4-(1-(hydroxymethyl)cyclopropyl)phenyl)-1H-indol-2-yl)methyl)-2-methylbenzoic acid] | 601% | 10 nM | – | – | – |
| Cc1ccc(Cc2cc3cc(-c4ccc(-c5ccc(S(C)(=O)=O)cc5)cc4)c(Cl)cc3[nH]2)cc1C(=O)O [Example 3] | 680% | 13 nM | – | – | – |
| OC[C@H]1OC[C@@H](Oc2cc3nc(-c4ccc(-c5ccccc5)cc4)c(Cl)cc3[nH]2)[C@@H]1O [Example 123] | – | – | 295% | 12 nM | – |
| CCOc1ccc(-c2cc3cc(Cc4ccc(C)c(C(=O)O)c4)[nH]c3cc2Cl)c(F)c1 [Example 8, 5-((6-chloro-5-(4-ethoxy-2-fluorophenyl)-1H-indol-2-yl)methyl)-2-methylbenzoic acid] | 265% | 493 nM | – | – | – |
| O[C@@H]1CO[C@H]2[C@@H]1OC[C@H]2Oc1cc2nc(-c3ccc(-c4ccccc4)cc3)c(Cl)cc2[nH]1 [Example 69] | – | – | 354% | 5 nM | – |
| Cn1ccc2cc(-c3nc4cc(O[C@@H]5CO[C@H]6[C@@H]5OC[C@H]6O)[nH]c4cc3Cl)ccc21 [Example 77] | – | – | 472% | < 3 nM | – |
